From ChEMBL document CHEMBL1201862, “PubChem BioAssay data set” (2004)
Structures can show the parent of a compound that is named as a salt.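 Results reflect a 48-hour exposure of cells in 96-well plates to compound at five concentrations. At the GI50, growth is halved.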 Activity calls are given as the source filed them. No stated cut-off is given here; in the data, active = GI50 up to about 1.1 µM and inactive = higher. Non-standard residues stand in square brackets, D forms with d. Residues, ends and D or L forms follow the SMILES beside them.

Experiments:
Experiment in all cases: DTP human tumour cell line panel, 48 h
SF-295 = test system: SF-295
SF-539 = test system: SF-539
LOX IMVI = test system: LOX IMVI
SR = test system: SR
SK-OV-3 = test system: SK-OV-3
MDA-N = test system: MDA-N
MOLT-4 = test system: MOLT-4
HCT-116 = test system: HCT-116
SW-620 = test system: SW-620
ACHN = test system: ACHN
TK-10 = test system: TK-10
SN12C = test system: SN12C
SF-268 = test system: SF-268
DU-145 = test system: DU-145
RPMI-8226 = test system: RPMI-8226
NCI-H460 = test system: NCI-H460
UACC-62 = test system: UACC-62
HCC 2998 = test system: HCC 2998
Malme-3M = test system: Malme-3M

Measured: GI50

CCCCCCn1c(SC)nc(COC(=O)NC)c1COC(=O)NC
inactive: SF-295 20.2 µM | SF-539 17.6 µM | LOX IMVI 21.3 µM | SR 19.7 µM | SK-OV-3 19 µM | MDA-N 19.2 µM | MOLT-4 13 µM | HCT-116 17.8 µM | SW-620 19.2 µM | ACHN 16.6 µM | TK-10 16.7 µM | SN12C 16.7 µM | SF-268 14.6 µM | DU-145 16.5 µM | RPMI-8226 22.4 µM | NCI-H460 18.1 µM | UACC-62 14.8 µM

CSCC[C@H](NC(=O)[C@@H](N)CC(N)=O)C(=O)N[C@@H](Cc1c[nH]c2ccccc12)C(=O)N[C@@H](CCC(N)=O)C(=O)N[C@@H](CCC(=O)O)C(=O)N[C@H](C(=O)NCC(=O)N[C@@H](CCCCN)C(=O)N[C@H](C)C(=O)O)C(C)C (H-NMWQEVGK[dA]-OH)
inactive: SF-295 > 100 µM | SF-539 > 100 µM | LOX IMVI > 100 µM | SK-OV-3 > 100 µM | MDA-N > 100 µM | MOLT-4 > 100 µM | HCC 2998 > 100 µM | HCT-116 > 100 µM | SW-620 > 100 µM | ACHN > 100 µM | Malme-3M > 100 µM | TK-10 > 100 µM | SN12C > 100 µM | SF-268 > 100 µM | DU-145 > 100 µM | RPMI-8226 > 100 µM | NCI-H460 > 100 µM | UACC-62 > 100 µM

CN1CCN(CCCN)CC1
inactive: SF-295 > 100 µM | LOX IMVI > 100 µM | SR > 100 µM | SK-OV-3 > 100 µM | MDA-N > 100 µM | MOLT-4 > 100 µM | HCT-116 > 100 µM | SW-620 > 100 µM | ACHN > 100 µM | Malme-3M > 100 µM | TK-10 > 100 µM | SN12C > 100 µM | SF-268 > 100 µM | DU-145 > 100 µM | RPMI-8226 > 100 µM | UACC-62 > 100 µM

N=C(N)c1ccc(-c2ccc(-c3ccc(C(=N)N)cc3)o2)cc1 [FURAMIDINE HYDROCHLORIDE]
inactive: SF-295 41.4 µM | SF-539 37.3 µM | SR 29.8 µM | SK-OV-3 > 100 µM | MDA-N 27.5 µM | MOLT-4 27.4 µM | HCT-116 28.8 µM | SW-620 28.5 µM | ACHN 39.6 µM | Malme-3M 18.6 µM | TK-10 24.9 µM | SN12C 12.6 µM | SF-268 45.3 µM | DU-145 32.7 µM | RPMI-8226 18.6 µM | NCI-H460 17.6 µM | UACC-62 25.6 µM

Nc1cc(OCC2CCCCC2)nc(N)n1
inactive: SF-295 > 100 µM | SF-539 > 100 µM | LOX IMVI > 100 µM | SK-OV-3 > 100 µM | MDA-N > 100 µM | MOLT-4 82.2 µM | HCC 2998 > 100 µM | HCT-116 > 100 µM | SW-620 > 100 µM | ACHN > 100 µM | Malme-3M > 100 µM | TK-10 > 100 µM | SN12C > 100 µM | SF-268 > 100 µM | DU-145 > 100 µM | RPMI-8226 > 100 µM | NCI-H460 > 100 µM | UACC-62 > 100 µM

CN(C)/C=N/c1ccc2c3c(cccc13)-c1ccccc1-2
inactive: SF-295 14.4 µM | SF-539 12.1 µM | LOX IMVI 14.5 µM | SR 10.3 µM | SK-OV-3 13.7 µM | MDA-N 14.5 µM | MOLT-4 10.1 µM | HCT-116 15.4 µM | ACHN 16 µM | Malme-3M 18.5 µM | TK-10 13.8 µM | SN12C 12.6 µM | SF-268 12.5 µM | DU-145 12.7 µM | RPMI-8226 10.4 µM | UACC-62 18.6 µM

CC(C)OCC(O)COc1ccc2ccc(=O)oc2c1 (stereo unspecified)
inactive: SF-295 > 100 µM | LOX IMVI > 100 µM | SK-OV-3 > 100 µM | MDA-N > 100 µM | MOLT-4 > 100 µM | HCC 2998 > 100 µM | HCT-116 > 100 µM | SW-620 > 100 µM | ACHN > 100 µM | Malme-3M > 100 µM | TK-10 > 100 µM | SN12C > 100 µM | SF-268 > 100 µM | DU-145 > 100 µM | RPMI-8226 > 100 µM | NCI-H460 > 100 µM | UACC-62 > 100 µM

CCCCCCC(O)C(=O)OC1C2C(CC1(C)C)C(O)C13OC1C(O)C1(CO1)[C@@]23C (stereo partly specified)
inactive: SF-295 71.4 µM | LOX IMVI 19.2 µM | SR 52.2 µM | SK-OV-3 61.2 µM | MDA-N 45.4 µM | MOLT-4 16.1 µM | HCT-116 47.4 µM | ACHN > 10 µM | Malme-3M > 100 µM | TK-10 44.9 µM | SN12C 54.7 µM | SF-268 20.1 µM | DU-145 > 100 µM | RPMI-8226 40.9 µM | NCI-H460 > 10 µM | UACC-62 26 µM

COc1ccc(NC(=O)CC(=O)N2N=C(C)C(/N=N/c3ccc(C(=O)O)cc3)C2=O)cc1 (stereo unspecified)
inactive: SF-295 > 100 µM | SF-539 > 100 µM | LOX IMVI 94 µM | MDA-N > 100 µM | HCC 2998 > 100 µM | HCT-116 > 100 µM | SW-620 > 100 µM | ACHN > 100 µM | Malme-3M > 100 µM | TK-10 > 100 µM | SN12C > 100 µM | SF-268 > 100 µM | DU-145 > 100 µM | RPMI-8226 > 10 µM | NCI-H460 > 100 µM | UACC-62 > 100 µM

Cn1c2c(c3c(=O)[nH]ncc31)Cc1ccccc1-2
inactive: SF-295 4.33 µM | SF-539 19.2 µM | LOX IMVI 6.65 µM | SR 3.79 µM | SK-OV-3 6.49 µM | MDA-N 12.9 µM | MOLT-4 3.45 µM | HCT-116 3.64 µM | SW-620 7.24 µM | ACHN 5.07 µM | Malme-3M 16.3 µM | TK-10 5.81 µM | SN12C 7.62 µM | SF-268 12 µM | DU-145 10.6 µM | RPMI-8226 15.9 µM | NCI-H460 3.04 µM

Cn1c(N)c(/C=C/C(=O)Oc2ccccc2)c(=O)n(C)c1=O
inactive: SF-295 33.7 µM | SF-539 50.8 µM | LOX IMVI > 100 µM | SK-OV-3 56.5 µM | MDA-N > 100 µM | MOLT-4 > 100 µM | HCC 2998 > 100 µM | HCT-116 > 100 µM | SW-620 > 100 µM | ACHN 50.7 µM | Malme-3M > 100 µM | TK-10 > 100 µM | SN12C 45.6 µM | SF-268 31.7 µM | DU-145 99.8 µM | RPMI-8226 > 100 µM | NCI-H460 > 100 µM | UACC-62 > 100 µM
